Experimental data reported in ChEMBL document CHEMBL3784965, “Discovery of (R)-6-(1-(8-Fluoro-6-(1-methyl-1H-pyrazol-4-yl)-[1,2,4]triazolo[4,3-a]pyridin-3-yl)ethyl)-3-(2-methoxyethoxy)-1,6-naphthyridin-5(6H)-one (AMG 337), a Potent and Selective Inhibitor of MET with High Unbound Target Coverage and Robust In Vivo Antitumor Activity” (J Med Chem, 2016).
≈ marks a conversion by molar mass, not a printed value.

How the values were obtained:
Rattus norvegicus = species: Rattus norvegicus; experiment: Unbound clearance in Sprague-Dawley rat at 5 ug/ml by equilibrium dialysis method; type: ADME, organism-based; conditions: in vivo
[1] = Oral bioavailability in Sprague-Dawley rat at 2 mg/kg; type: ADME, organism-based; conditions: in vivo
[2] = Half life in Sprague-Dawley rat; type: ADME, organism-based; conditions: in vivo
[3] = Clearance in Sprague-Dawley rat at 0.25 mg/kg, iv; type: ADME, organism-based; conditions: in vivo
[4] = Fraction unbound in Sprague-Dawley rat plasma at 5 ug/ml by equilibrium dialysis method; type: ADME, cell-free
[5] = Fraction unbound in mouse plasma at 5 ug/ml by equilibrium dialysis method; type: ADME, cell-free
[6] = Fraction unbound in human plasma at 5 ug/ml by equilibrium dialysis method; type: ADME, cell-free
[7] = Volume of distribution at steady state in Sprague-Dawley rat; type: ADME, organism-based; conditions: in vivo, read-out: Vdss
[8] = Intrinsic clearance in rat liver microsomes; type: ADME; conditions: read-out: CLH
[9] = Intrinsic clearance in mouse liver microsomes; type: ADME; conditions: read-out: CLH
[10] = Intrinsic clearance in human liver microsomes; type: ADME; conditions: read-out: CLH
[11] = Solubility of compound in PBS; type: physicochemical
Cytochrome P450 3A4 [12] = target: T1, Cytochrome P450 3A4 (Homo sapiens, UniProt P08684); experiment: (§1) Inhibition of CYP3A4 (unknown origin) in presence of NADPH; type: ADME
Cytochrome P450 3A4 [13] = target: T1, Cytochrome P450 3A4; experiment: Inhibition of CYP3A4 (unknown origin) in absence of NADPH; type: ADME
Mus musculus [14] = experiment: In vivo inhibition of HGF-induced phosphorylation of MET in Balb/c mouse liver assessed as time required for >90% inhibition at 10 mg/kg administered via oral gavage; type: functional
Plasma [15] = experiment: Unbound plasma concentration in Balb/c mouse at 10 mg/kg, administered via oral gavage measured at 12 hrs; type: ADME, organism-based; conditions: in vivo
Mus musculus [16] = experiment: In vivo inhibition of HGF-induced phosphorylation of MET in Balb/c mouse liver assessed as phosphorylated cMET level at 10 mg/kg administered via oral gavage followed by HGF injection 24 hrs post dose by electrochemiluminescence immunoassay relative to control; type: functional; design: scale not given: the % may be the effect or the level left
Mus musculus [17] = experiment: In vivo inhibition of HGF-induced phosphorylation of MET in Balb/c mouse liver assessed as phosphorylated cMET level at 10 mg/kg administered via oral gavage followed by HGF injection 1 hr post dose by electrochemiluminescence immunoassay relative to control; type: functional; design: scale not given: the % may be the effect or the level left
Mus musculus [18] = experiment: In vivo inhibition of HGF-induced phosphorylation of MET in Balb/c mouse liver assessed as phosphorylated cMET level at 10 mg/kg administered via oral gavage followed by HGF injection 3 hrs post dose by electrochemiluminescence immunoassay relative to control; type: functional; design: scale not given: the % may be the effect or the level left
Mus musculus [19] = experiment: In vivo inhibition of HGF-induced phosphorylation of MET in Balb/c mouse liver assessed as phosphorylated cMET level at 10 mg/kg administered via oral gavage followed by HGF injection 6 hrs post dose by electrochemiluminescence immunoassay relative to control; type: functional; design: scale not given: the % may be the effect or the level left
Mus musculus [20] = experiment: In vivo inhibition of HGF-induced phosphorylation of MET in Balb/c mouse liver assessed as phosphorylated cMET level at 10 mg/kg administered via oral gavage followed by HGF injection 9 hrs post dose by electrochemiluminescence immunoassay relative to control; type: functional; design: scale not given: the % may be the effect or the level left
Mus musculus [21] = experiment: In vivo inhibition of HGF-induced phosphorylation of MET in Balb/c mouse liver assessed as phosphorylated cMET level at 10 mg/kg administered via oral gavage followed by HGF injection 12 hrs post dose by electrochemiluminescence immunoassay relative to control; type: functional; design: scale not given: the % may be the effect or the level left
[22] = Clearance in Beagle dog at 0.713 mg/kg, iv; type: ADME, organism-based, Canis lupus familiaris; conditions: in vivo
Canis familiaris = species: Canis familiaris; experiment: Unbound clearance in Beagle dog at 5 ug/ml by equilibrium dialysis method; type: ADME, organism-based, Canis lupus familiaris; conditions: in vivo
[23] = Volume of distribution at steady state in iv dosed Beagle dog; type: ADME, organism-based, Canis lupus familiaris; conditions: in vivo, read-out: Vdss
[24] = Half life in iv dosed Beagle dog; type: ADME, organism-based, Canis lupus familiaris; conditions: in vivo
[25] = AUC(0 to infinity) in Beagle dog at 10 mg/kg,po; type: ADME, organism-based, Canis lupus familiaris; design: dose 10 mg/kg, route oral, time infinity; conditions: in vivo
[26] = Oral bioavailability in Beagle dog at 10 mg/kg; type: ADME, organism-based, Canis lupus familiaris; conditions: in vivo
[27] = AUC(0 to infinity) in Beagle dog at 30 mg/kg, po; type: ADME, organism-based, Canis lupus familiaris; design: dose 30 mg/kg, time infinity, route oral; conditions: in vivo
[28] = (§2) Antitumor activity against mouse NIH-3T3/TPR-Met cells xenografted in CD1 mouse assessed as tumor growth inhibition administered as oral gavage, qd over 22 days; type: functional; conditions: NIH3T3, po, 528 h
Mus musculus [29] = experiment: as §2; type: functional
Mus musculus [30] = experiment: Toxicity in CD1 mouse xenografted with mouse NIH-3T3/TPR-Met cells assessed as effect on body weight at 0.1 to 10 mg/kg, qd administered as oral gavage over 22 days; type: organism-based; conditions: in vivo, 528 h
[31] = Oral bioavailability in Beagle dog at 30 mg/kg; type: ADME, organism-based, Canis lupus familiaris; conditions: in vivo
[32] = Solubility of compound in 0.01 N HCl; type: physicochemical
[33] = Solubility of compound in SIF; type: physicochemical
CYP3A4 = CYP3A4 (Homo sapiens, UniProt P08684); experiment: as §1; type: ADME
Mus musculus [34] = experiment: In vivo inhibition of HGF-induced phosphorylation of MET in Balb/c mouse liver assessed as time required for >90% inhibition at 30 mg/kg administered via oral gavage; type: functional
Plasma [35] = experiment: Unbound plasma concentration in Balb/c mouse at 30 mg/kg, administered via oral gavage measured at 6 hrs; type: ADME, organism-based; conditions: in vivo
[36] = Clearance in Sprague-Dawley rat at 0.3 mg/kg, iv; type: ADME, organism-based; conditions: in vivo
[37] = target: Hepatocyte growth factor receptor (Homo sapiens, UniProt P08581)
Description: Inhibition of HGF-mediated MET autophosphorylation in human PC3 cells preincubated for 1 hr followed by stimulation with human HGF measured after 10 mins by electrochemiluminescence immunoassay

[38] = Clearance in Beagle dog at 0.425 mg/kg, iv; type: ADME, organism-based, Canis lupus familiaris; conditions: in vivo
Plasma [39] = experiment: Unbound plasma concentration in Balb/c mouse at 10 mg/kg, administered via oral gavage measured at 6 hrs; type: ADME, organism-based; conditions: in vivo
Plasma [40] = experiment: Unbound plasma concentration in mouse at 10 mg/kg, po measured at 9 hrs; type: ADME, organism-based; conditions: in vivo

SMILES	CL free (Rattus norvegicus)	bioavailability [1]	half-life [2]	clearance [3]	fraction unbound at 5 ug/ml [4]	fraction unbound at 5 ug/ml [5]	fraction unbound at 5 ug/ml [6]	Vd [7]	microsomal CLint [8]	microsomal CLint [9]	microsomal CLint [10]	solubility [11]	Activity (Mus musculus [16])	Activity (Mus musculus [17])	Activity (Mus musculus [18])	Activity (Mus musculus [19])	Activity (Mus musculus [20])	Activity (Mus musculus [21])	other results
COCCOc1cnc2ccn([C@H](C)c3nnc4ccc(-c5cnn(C)c5)cn34)c(=O)c2c1	40 mL/min/kg	25%	1.8 h	11.7 mL/min/kg	0.296	0.424	0.498	1.3 L/kg	< 5 µL/min/mg	7 µL/min/mg	8 µL/min/mg	–	–	–	–	–	–	–	–
COCCOc1cnc2ccc([C@H](C)n3nnc4ccn(-c5cc(C)ns5)c(=O)c43)cc2c1	517 mL/min/kg	–	3.4 h	–	–	–	–	–	–	–	–	9 µg/mL (≈ 19.5 µM)	–	–	–	–	–	–	IC50 (Cytochrome P450 3A4 [12]): 21 µM; IC50 (Cytochrome P450 3A4 [13]): 21 µM; Time (Mus musculus [14]): 12 h; Cp(f) (Plasma [15]): 20 nM
COc1cnc2ccn([C@H](C)c3nnc4c(F)cc(-c5cc(C)no5)cn34)c(=O)c2c1	–	31%	1.1 h	7.67 mL/min/kg	–	–	–	0.5 L/kg	–	–	–	–	–	–	–	–	–	–	–
COCCOc1cnc2ccn([C@H](C)c3nnc4c(F)cc(-c5cc(C)no5)cn34)c(=O)c2c1	40 mL/min/kg	54%	2.9 h	3.33 mL/min/kg	0.08	0.317	0.409	0.7 L/kg	16 µL/min/mg	14 µL/min/mg	20 µL/min/mg	–	28%	101%	100%	99%	99%	51%	–
COCCOc1cnc2ccn([C@H](C)c3nnc4c(F)cc(-c5cnn(C)c5)cn34)c(=O)c2c1 [AMG-337]	26.7 mL/min/kg	30%	3 h	4.5 mL/min/kg	0.174	0.366	0.419	0.9 L/kg	6 µL/min/mg	8 µL/min/mg	9 µL/min/mg	–	51%	101%	98%	98%	92%	92%	clearance [22]: 3.83 mL/min/kg; CL free (Canis familiaris): 7.67 mL/min/kg; Vd [23]: 1.1 L/kg; half-life [24]: 5.9 h; AUC(0-inf) [25]: 21000 ng·h/mL; bioavailability [26]: 49%; AUC(0-inf) [27]: 82600 ng·h/mL; ED50 [28]: 0.3 mg/kg; ED90 [28]: 0.8 mg/kg; Activity (Mus musculus [29]): Dose-dependent effect; Activity (Mus musculus [30]): Non-toxic; bioavailability [31]: 64%
C[C@H](c1nnc2c(F)cc(-c3cnn(C)c3)cn12)n1ccc2ncccc2c1=O	17 mL/min/kg	31%	4 h	4.67 mL/min/kg	0.271	0.376	0.478	0.7 L/kg	8 µL/min/mg	< 5 µL/min/mg	< 5 µL/min/mg	–	–	–	–	–	–	–	–
COc1cnc2c(NCc3nnc4ccc(-c5cc(C)ns5)nn34)ccnc2c1	433 mL/min/kg	–	1.8 h	3.17 mL/min/kg	–	–	–	–	–	–	–	3 µg/mL (≈ 7.42 µM)	–	–	–	–	–	–	solubility [32]: > 200 µg/mL; solubility [33]: 13 µg/mL (≈ 32.1 µM); IC50 (CYP3A4): > 50 µM; Time (Mus musculus [34]): 6 h; Cp(f) (Plasma [35]): 9 nM
COc1cnc2ccn([C@H](C)c3nnc4c(F)cc(-c5cnn(C)c5)cn34)c(=O)c2c1	15 mL/min/kg	43%	3.6 h	2 mL/min/kg	0.139	0.353	0.309	0.5 L/kg	12 µL/min/mg	7 µL/min/mg	< 5 µL/min/mg	–	–	–	–	–	–	–	–
COc1ccc2c(OCc3nnc4ccc(-c5cc(F)c(F)c(F)c5)nn34)ccnc2c1	967 mL/min/kg	–	3.5 h	–	–	–	–	–	–	–	–	4 µg/mL (≈ 9.15 µM)	–	–	–	–	–	–	solubility [32]: 85 µg/mL (≈ 194 µM); solubility [33]: 17 µg/mL (≈ 38.9 µM); clearance [36]: 1 mL/min/kg; Time (Mus musculus [34]): 6 h; Cp(f) (Plasma [35]): 34 nM; IC50 [37]: 0.008 µM
COc1cnc2ccn([C@H](C)c3nnc4ccc(-c5cnn(C)c5)cn34)c(=O)c2c1	53.3 mL/min/kg	36%	1.7 h	10.8 mL/min/kg	0.206	0.409	0.286	1.2 L/kg	9 µL/min/mg	7 µL/min/mg	< 5 µL/min/mg	–	–	–	–	–	–	–	–
COCCOc1cnc2ccn([C@H](C)c3nnc4ccc(-c5cc(C)no5)cn34)c(=O)c2c1	25 mL/min/kg	59%	2.4 h	4.83 mL/min/kg	0.19	0.435	0.338	1 L/kg	9 µL/min/mg	23 µL/min/mg	7 µL/min/mg	–	50%	109%	109%	108%	108%	95%	clearance [38]: 5 mL/min/kg; CL free (Canis familiaris): 11.3 mL/min/kg; Vd [23]: 1.4 L/kg; half-life [24]: 4.3 h; AUC(0-inf) [25]: 19300 ng·h/mL; bioavailability [26]: 53%; AUC(0-inf) [27]: 94100 ng·h/mL; bioavailability [31]: 87%
COCCOc1cnc2ccc([C@H](C)c3nnc4c(F)cc(-c5cc(C)no5)cn34)cc2c1	433 mL/min/kg	–	4.2 h	–	–	–	–	–	–	–	–	52 µg/mL (≈ 116 µM)	–	–	–	–	–	–	solubility [32]: > 200 µg/mL; solubility [33]: 126 µg/mL (≈ 282 µM); IC50 (Cytochrome P450 3A4 [12]): > 50 µM; IC50 (Cytochrome P450 3A4 [13]): > 50 µM; Time (Mus musculus [14]): 6 h; Cp(f) (Plasma [39]): 141 nM
Cc1cc(-c2cc(F)c3nnc([C@@H](C)n4ccc5ncccc5c4=O)n3c2)on1	31.7 mL/min/kg	44%	0.8 h	6.33 mL/min/kg	0.196	0.245	0.32	0.4 L/kg	8 µL/min/mg	< 5 µL/min/mg	14 µL/min/mg	–	12%	100%	101%	98%	91%	40%	TDI (Cytochrome P450 3A4 [12]; human): Not Active; TDI (Cytochrome P450 3A4 [13]; human): Not Active; Cp(f) (Plasma [40]): 193 nM
